Experimental data taken from patent publication US20230405011A1, “COMBINATION THERAPY FOR THE TREATMENT OF CANCER” (Novartis AG, priority 2013, published 2023).

Test: Phase Ib/II trial of Example 5: pharmacokinetics
Type: in vivo

## CN(C)C(=O)c1cc2cnc(Nc3ccc(N4CCNCC4)cn3)nc2n1C1CCCC1 [Compound A1, 7-Cyclopentyl-2-(5-piperazin-1-yl-pyridin-2-ylamino)-7H-pyrrolo[2,3-d]pyrimidine-6-carboxylic acid dimethylamide]
Preliminary PK analysis
  effect of EVE on Compound A1 exposure: does not affect
Steady state (C1D15), Compound A1+EVE+EXE
  absorption: rapidly absorbed

## CO[C@H]1C[C@@H]2CC[C@@H](C)[C@@](O)(O2)C(=O)C(=O)N2CCCC[C@H]2C(=O)O[C@H]([C@H](C)C[C@@H]2CC[C@@H](OCCO)[C@H](OC)C2)CC(=O)[C@H](C)/C=C(\C)[C@@H](O)[C@@H](OC)C(=O)[C@H](C)C[C@H](C)/C=C/C=C/C=C/1C [EVE, Everolimus, reference compound]
In vivo
  EVE exposure at steady state: increased
